Experimental data reported in patent US12325695B2, “5-(4-pyridyloxy)pyrazole compounds serving as TGF-βR1 kinase inhibitor” (JIANGSU AOSAIKANG PHARMACEUTICAL CO., LTD., priority 2019, dated 2025).
Values belong to the compound of their own block, whether it stands above or below them.

Tests used:
[1] = system: pSmad; test: Inhibitory activity assay on Smad phosphorylation (HEK-Blue-TGFβ cells, Quanti-Blue readout); type: cell-based; settings: TGFβ stimulation, 24 hours, read-out: pSmad inhibition IC50
Method: Experimental Embodiment 1: Inhibitory Activity Assay on Smad Phosphorylation
Both HEK-Blue-TGFβ cells and Quanti-Blue reagent were purchased from Invivogen Company. TGFβ was purchased from PeproTech.
The compounds to be tested were diluted 5 times with a row gun to the 8th concentration, that is, diluted from 1 mmol/L to 12.8 nmol/L, the final concentration of dimethyl sulfoxide was 100%, and a double hole experiment was set up. 2 μL of inhibitors of each concentration gradient, 18 μL of TGFβ (20 ng/mL), and 180 μL of cell suspension (140,000 cells/mL) were added to the microplate. At this time, the final concentration gradient of the compound was […] diluted to 0.13 nmol/L. The cell plate was placed at 37° C. in a 5% CO2 incubator for 24 hours. After the reaction was completed, 40 μL of cell culture supernatant was taken out from each well to a new transparent microtiter plate, 160 μL of Quanti-Blue reagent was added to each well, and then the reaction was carried out at 37° C. for 60 minutes. After the reaction was completed, the PerkinElmer Envision multi-label analyzer was used to read the absorption light at 630 nm.
The original data was converted into the inhibition rate, and the IC50 value can be obtained by curve fitting with four parameters.

[2] = Pharmacokinetics study of cassette drug administration in vivo; set-up: species or system CD-1 male mice; settings: male, mouse, plasma, CD-1 mice; for Vd: read-out: Vdss; for bioavailability: oral (1.5 mg/kg) vs injection (1 mg/kg), read-out: F (bioavailability)
Method: Experimental Embodiment 2: Pharmacokinetics Study of Cassette Drug Administration in Vivo
The purpose of this experiment is to evaluate the pharmacokinetic behavior of the compound after a single intravenous injection and intragastric administration, and to investigate the bioavailability after intragastric administration.
CD-1 male mice aged from 7 to 10 weeks were selected, and the doses for intravenous and oral administration were 1 mg/kg and 1.5 mg/kg, respectively. The mice were fasted for at least 12 hours before the administration, and resumed feeding 4 hours after the administration. The mice were free to drink during the entire experiment.
(§1) On the day of the experiment, animals in the intravenous group were given a single injection of the corresponding compound through the tail vein with a volume of 5 mL/kg; the oral group was given the corresponding compound by a single gavage with a volume of 5 mL/kg. The animals were weighed before administration, and the administration volume was calculated according to the body weight. Sample collection time: 0.083 hours, 0.25 hours, 0.5 hours, 1 hour, 2 hours, 4 hours, 8 hours, 24 hours in the injection group; 0.25 hours, 0.5 hours, 1 hour, 2 hours, 4 hours, 6 hours, 8 hours, 24 hours in the gavage group. Approximately 30 μL of whole blood was collected through the saphenous vein at each time point to prepare plasma for high-performance liquid chromatography-tandem mass spectrometry (LC-MS/MS) for concentration determination. All animals were euthanized by CO2 anesthesia after collecting PK samples at the last time point. The non-compartmental model of WinNonlin™ Version 6.3 (Pharsight, Mountain View, CA) pharmacokinetic software was used to process the plasma concentration, and the pharmacokinetic parameters were calculated using the linear and logarithmic trapezoidal method.

[3] = system: mouse colon cancer CT-26 cells; test: Anti-tumor drug efficacy study, mouse colon cancer CT-26 cell BALB/c mouse subcutaneous allograft tumor model; type: in vivo, BALB/c mice; settings: 50 mg/kg, twice a day, oral
Method: (§2) Experimental Embodiment 3: Anti-Tumor Drug Efficacy Study of Mouse Colon Cancer CT-26 Cell BALB/c Mouse Subcutaneous Allograft Tumor Model In Vivo
The main purpose of this study is to study the anti-tumor drug efficacy of the tested compounds on the CT26 mouse allograft tumor model.
(§3) Cell culture: mouse colon cancer CT-26 cells were cultured in monolayer in vitro, and the culture conditions were RPMI-1640 medium with 10% fetal bovine serum, 37° C. and 5% carbon dioxide incubator. Trypsin-ethylenediaminetetraacetic acid (EDTA) was used for routine digestion and passage twice a week. When the cell saturation was 80%-90% and the number reached the requirement, the cells were collected, counted, and inoculated.
(§4) Animals: BALB/c mice, female, 6-8 weeks old.
(§5) Tumor inoculation: 0.1 mL of DPBS cell suspension containing 3×10^5 CT26 cells was subcutaneously inoculated into the right groin of each mouse, and administration was started on the day of inoculation.
Experimental index: The experimental index was to investigate whether the tumor growth was inhibited, delayed or cured. The tumor diameter was measured with a vernier caliper twice a week. The calculation formula for tumor volume is: V=0.5 L×W^2, where L and W refer to the long diameter and short diameter of the tumor, respectively.

[4] = Drug concentration in tumor tissue and plasma AUC in the CT26 tumor model study; type: in vivo, BALB/c mice; settings: 50 mg/kg, twice a day, oral; for AUC: female, BALB/c, mouse, plasma
Method: as §2, §3, §4, §5

[5] = Pharmacokinetic studies in vivo (single compound); set-up: species or system CD-1 male mice; settings: CD-1 mice; for AUC(0-t) / clearance / half-life / Vd / Cmax / Tmax: male, mouse, plasma; for Vd: read-out: Vdss
Method: Experiment 4: Pharmacokinetic Studies In Vivo
The purpose of this experiment is to evaluate the pharmacokinetic behavior of the compounds after a single intravenous injection and intragastric administration, and to investigate the bioavailability after intragastric administration.
[…] The mice were fasted for at least 12 hours before the administration, and resumed feeding 4 hours after the administration. The mice were free to drink during the entire experiment.
as §1, with “volume of 10 mL/kg. The” for “volume of 5 mL/kg. The”, “the injection group, 0.25 hours,” for “the injection group; 0.25 hours,”

IC50 [1]: 283 nM
Structure (SMILES): NC(=O)c1cccc(Nc2cc(Oc3cc(C4CC4)nn3C3CCOCC3)ccn2)c1 [Trifluoroacetate of compound 18]

IC50 [1]: 441 nM
Structure (SMILES): Cc1cccc(-n2nc(C)cc2Oc2ccnc(Nc3cnn(CC(C)(C)O)c3)c2)n1 [Compound 5]

IC50 [1]: 416 nM
Structure (SMILES): Cc1nn(C2CCOCC2)c(Oc2ccnc(Nc3cccc(C(N)=O)c3)c2)c1C [Compound 15]

AUC(0-t) ([2]; iv, injection (1 mg/kg)): 1.15 µM·h
clearance ([2]; iv, injection (1 mg/kg)): 37.3 mL/min/kg
half-life ([2]; iv, injection (1 mg/kg)): 0.477 h
Vd ([2]; iv, injection (1 mg/kg)): 0.679 L/kg
bioavailability [2]: 34.9%
AUC(0-t) ([2]; oral (1.5 mg/kg)): 0.586 µM·h
Cmax ([2]; oral (1.5 mg/kg)): 712 nM
Tmax ([2]; oral (1.5 mg/kg)): 0.25 h
half-life ([2]; oral (1.5 mg/kg)): 1.45 h
Drug concentration in tumor tissue 1 hour after administration [4]: 988 nmol/kg
Drug concentration in tumor tissue 12 hours after administration [4]: 180 nmol/kg
AUC [4]: 6.17 µM·h
AUC(0-t) ([5]; iv, injection, 1 mg/kg): 0.814 µM·h
clearance ([5]; iv, injection, 1 mg/kg): 56 mL/min/kg
half-life ([5]; iv, injection, 1 mg/kg): 0.45 h
Vd ([5]; iv, injection, 1 mg/kg): 1.31 L/kg
AUC(0-t) ([5]; oral, 5 mg/kg): 1.37 µM·h
Cmax ([5]; oral, 5 mg/kg): 1840 nM
Tmax ([5]; oral, 5 mg/kg): 0.25 h
half-life ([5]; oral, 5 mg/kg): 1.1 h
F ([5]; oral 5 mg/kg vs injection 1 mg/kg): 33.5%
Structure (SMILES): Cc1cccc(-c2nn3c(c2-c2ccnc4ccc(C(N)=O)cc24)CCC3)n1 [Compound A, Galunisertib, reference compound]
% Inhibitory rate on Day 29 [3]: 66%
Mean tumor volume Day 29 [3]: 758.19 mm^3

IC50 [1]: 53.8 nM
Structure (SMILES): CCc1cc(Oc2ccnc(Nc3cccc(C(N)=O)c3)c2)n(-c2cccc(C)n2)n1 [Compound 4]

IC50 [1]: 166 nM
Structure (SMILES): NC(=O)c1cccc(Nc2cc(Oc3c4c(nn3C3CCOCC3)CCC4)ccn2)c1 [Compound 16]

IC50 [1]: 59.6 nM
Structure (SMILES): Cc1cccc(-n2nc3c(c2Oc2ccnc(Nc4cccc(C(N)=O)c4)c2)CCC3)n1 [Compound 13]

IC50 [1]: 54.3 nM
Structure (SMILES): Cc1cccc(-n2nc3c(c2Oc2ccnc(Nc4cccc(C(N)=O)c4)c2)CCCC3)n1 [Compound 3]

IC50 [1]: 247 nM
Structure (SMILES): Cc1cccc(-n2nccc2Oc2ccnc(Nc3cccc(C(N)=O)c3)c2)n1 [Compound 2]

IC50 [1]: 191 nM
Structure (SMILES): Cc1cccc(-n2nc(C)cc2Oc2ccnc(Nc3ccn(CC(C)(C)O)n3)c2)n1 [Compound 11]

IC50 [1]: 336 nM
AUC(0-t) ([2]; iv, injection (1 mg/kg)): 1.06 µM·h
clearance ([2]; iv, injection (1 mg/kg)): 37 mL/min/kg
half-life ([2]; iv, injection (1 mg/kg)): 1.37 h
Vd ([2]; iv, injection (1 mg/kg)): 2.39 L/kg
bioavailability [2]: 75.9%
AUC(0-t) ([2]; oral (1.5 mg/kg)): 1.16 µM·h
Cmax ([2]; oral (1.5 mg/kg)): 567 nM
Tmax ([2]; oral (1.5 mg/kg)): 0.25 h
half-life ([2]; oral (1.5 mg/kg)): 1.61 h
Drug concentration in tumor tissue 1 hour after administration [4]: 11318 nmol/kg
Drug concentration in tumor tissue 12 hours after administration [4]: 820 nmol/kg
AUC [4]: 30.1 µM·h
AUC(0-t) ([5]; iv, injection, 1 mg/kg): 1.34 µM·h
clearance ([5]; iv, injection, 1 mg/kg): 31.5 mL/min/kg
half-life ([5]; iv, injection, 1 mg/kg): 1.17 h
Vd ([5]; iv, injection, 1 mg/kg): 1.64 L/kg
AUC(0-t) ([5]; oral, 2.5 mg/kg): 2.7 µM·h
Cmax ([5]; oral, 2.5 mg/kg): 1560 nM
Tmax ([5]; oral, 2.5 mg/kg): 0.5 h
half-life ([5]; oral, 2.5 mg/kg): 1.15 h
F ([5]; oral 2.5 mg/kg vs injection 1 mg/kg): 80.9%
Structure (SMILES): Cc1cc(Oc2ccnc(Nc3cccc(C(N)=O)c3)c2)n(C2CCOCC2)n1 [Compound 14]
% Inhibitory rate on Day 29 [3]: 81%
Mean tumor volume Day 29 [3]: 424.78 mm^3

IC50 [1]: 684 nM
Structure (SMILES): Cc1cccc(-n2nc(C)cc2Oc2ccnc(Nc3cnccn3)c2)n1 [Compound 8]

IC50 [1]: 432 nM
Structure (SMILES): COc1cccc(-n2nc(C)cc2Oc2ccnc(Nc3cccc(C(N)=O)c3)c2)n1 [Compound 12]

IC50 [1]: 65.5 nM
Structure (SMILES): Cc1cccc(-n2nc(C)cc2Oc2ccnc(Nc3cccc(C(N)=O)c3)c2)c1 [Compound 1]

IC50 [1]: 354 nM
Structure (SMILES): Cc1cccc(-n2nc(C)cc2Oc2ccnc(Nc3cnn(CC(C)C)c3)c2)n1 [Compound 7]

IC50 [1]: 79.2 nM
AUC(0-t) ([2]; iv, injection (1 mg/kg)): 1.81 µM·h
clearance ([2]; iv, injection (1 mg/kg)): 24.9 mL/min/kg
half-life ([2]; iv, injection (1 mg/kg)): 1.32 h
Vd ([2]; iv, injection (1 mg/kg)): 1.05 L/kg
bioavailability [2]: 54.6%
AUC(0-t) ([2]; oral (1.5 mg/kg)): 1.45 µM·h
Cmax ([2]; oral (1.5 mg/kg)): 804 nM
Tmax ([2]; oral (1.5 mg/kg)): 0.25 h
half-life ([2]; oral (1.5 mg/kg)): 2.84 h
Structure (SMILES): Cc1cccc(-n2nc(C)cc2Oc2ccnc(Nc3cccc(C(N)=O)c3)c2)n1 [Compound 6]
% Inhibitory rate on Day 29 [3]: 73%
Mean tumor volume Day 29 [3]: 601.7 mm^3

IC50 [1]: 621 nM
Structure (SMILES): NC(=O)c1cccc(Nc2cc(Oc3c4c(nn3C3CCOCC3)CCCC4)ccn2)c1 [Compound 17]

IC50 [1]: 587 nM
Structure (SMILES): CC(C)c1cc(Oc2ccnc(Nc3cccc(C(N)=O)c3)c2)n(C2CCOCC2)n1 [Compound 19]

IC50 [1]: 355 nM
Structure (SMILES): Cc1cccc(-n2nc(C)cc2Oc2ccnc(Nc3cnn(CCO)c3)c2)n1 [Compound 10]

IC50 [1]: 268 nM
Structure (SMILES): Cc1cccc(-n2nc(C)cc2Oc2ccnc(Nc3ccnc(C(C)(C)O)c3)c2)n1 [Compound 9]
